Values after ≈ are worked out from the molar mass of the structure shown. “Also recorded” adds a separate entry of the source. Read-outs that look alike come from different tables or passages of the source.
Legend:
[1] = system: Candida glabrata TIMM 1064; test: Measurement of Minimum Inhibitory Concentration (MIC), agar dilution; assay type: cell-based; settings: SDA agar plates, 30°C
Method: (§1) Measurement of Minimum Inhibitory Concentration (MIC)
(§2) Yeast-type fungi were cultured in Sabouraud dextrose broth (SDB, Difco) at 30°C for 24 hours, and 10⁵ cell/ml suspension for inoculation were prepared by diluting this with sterile physiological saline. In the case of filamentous fungi, 3 to 5 ml sterile physiological saline containing 0.05% (w/v) Tween 80 were added to mature Sabouraud dextrose agar culture medium (SDA, Difco) slant cultures (cultured for 2 to 3 weeks) in which conidia had formed abundantly, and the conidia were separated using an inoculating loop (Nunc Inc.). The conidial suspensions obtained were collected using a sterile pipette, and, after filtration through a double layer of sterile gauze to remove mycelial aggregates and agar fragments, were made into suspensions for inoculation by dilution of 10⁵ conidia/ml with sterile physiological saline. Meanwhile, as regards the drug-containing agar plates, a drug concentration of 0.005 to 10 mg/ml was prepared using dimethyl sulfoxide (DMSO, Wako Junyaku), and, by adding 99 parts of SDA to 1 part of this drug solution, two-fold serial dilution agar media of final dilutions 0.05 to 100 µg/ml were prepared. The fungal suspensions for inoculation prepared by the above method were inoculated onto these agar plates using a MIT-P microplanter (Sakuma Seisakusho).

[2] = system: Candida albicans IFM 40009; test: as above; assay type: cell-based; settings: 30°C, 48 hours
Method: as §1, §2

[3] = system: Aspergillus fumigatus IFM 4942; test: as above; assay type: cell-based; settings: SDA agar plates, 30°C
Method: as §1, §2

[4] = system: Trichophyton mentagrophytes TIMM 1188; test: as above; assay type: cell-based; settings: SDA agar plates, 30°C
Method: as §1, §2

[5] = system: Cryptococcus neoformans TIMM 0362; test: as above; assay type: cell-based; settings: SDA agar plates, 30°C
Method: as §1, §2

[6] = system: Candida tropicalis TIMM 0313; test: as above; assay type: cell-based; settings: SDA agar plates, 30°C
Method: as §1, §2

[7] = Repeated oral toxicity testing in monkeys; assay type: in vivo; settings: for safe dosage: under these test conditions
Method: Compound A was given orally to monkeys every day for 28 days at dosages of 1, 3, 10 and 30 mg/kg/day, and its toxicity was studied.
As a result, at dosages of 3 mg/kg/day or more, a decrease in serum cortisol, hyperplasia and increase in lipid droplets in the zona fasciculata in the adrenal cortex, and atrophy of the seminiferous tubules of the testes were observed; at the dosage of 30 mg/kg/day, prolongation of the QTc interval in the electrocardiogram (QT period corrected for heart rate) was also observed. Under these test conditions, it was considered that 1 mg/kg/day was a safe dosage.
Compound (+)-I was given orally to monkeys every day for 28 days at dosages of 1, 3, 10 and 30 mg/kg/day, and its toxicity studied.
Under these test conditions, it was considered that 30 mg/kg/day was safe dosage.

[8] = system: Candida albicans IFM 40009; test: Effectiveness in treatment of in vivo infections (survival of infected mice); settings: IFM40009, Candida albicans IFM 40009 i.v. infection, male ICR mice, survival after 2 weeks
Method: (§3) Measurement of Effectiveness in Treatment of In vivo Infections Using 10 animals per group, male ICR mice (body weight 18 to 20 g) were infected by intravenous injection of the test fungi as an aqueous suspension. The test compounds were given orally once 1 hour after infection, or once daily for 5 days starting from 1 hour after infection. After 2 weeks, the number of animals surviving was counted, and the dosage at which 50% of the animals survive (ED₅₀: mg/kg) was calculated using the Litchfield-Wilcoxon method.

[9] = system: Aspergillus fumigatus IFM 4942; test: as above; settings: IFM4942; Aspergillus fumigatus IFM 4942 i.v. infection, male ICR mice; dosed orally 5x (once daily for 5 days); survival after 2 weeks
Method: as §3

[10] = system: Cryptococcus neoformans TIMM 0362; test: as above; settings: TIMM0362; Cryptococcus neoformans TIMM 0362 i.v. infection, male ICR mice; dosed orally 1x (1 hour after infection); survival after 2 weeks
Method: as §3

[11] = Variation in the plasma concentrations in monkeys of the toxicity study; assay type: in vivo; settings: repeated daily oral dosing for 28 days
[12] = Nakaseomyces glabratus, TIMM1064, 48 h, read-out: MIC
[13] = IFM40009, SDA agar plates, read-out: MIC
[14] = Aspergillus fumigatus, IFM4942, 48 h, read-out: MIC
[15] = Trichophyton mentagrophytes, TIMM1188, 48 h, read-out: MIC
[16] = Cryptococcus neoformans, TIMM0362, 48 h, read-out: MIC
[17] = Candida tropicalis, TIMM0313, 48 h, read-out: MIC
[18] = every day for 28 days, 1, 3, 10 and 30 mg/kg/day
[19] = dosed orally 5x (once daily for 5 days)
[20] = every day for 28 days, up to 30 mg/kg/day
[21] = dosed orally 1x (1 hour after infection)

| SMILES | MIC [1, 12] [µg/mL] | MIC [2, 13] [µg/mL] | MIC [3, 14] [µg/mL] | MIC [4, 15] [µg/mL] | MIC [5, 16] [µg/mL] | MIC [6, 17] [µg/mL] | safe dosage ([7]; every day for 28 days) [mg/kg/day] | ED50 [8, 19] [mg/kg] | ED50 [9] [mg/kg] | ED50 [10] [mg/kg] | variation in the plasma concentrations with time (accumulation) [11] | ED50 [8, 21] [mg/kg] | other results |
| --- | --- | --- | --- | --- | --- | --- | --- | --- | --- | --- | --- | --- | --- |
| OC(Cn1cncn1)(Cn1cnc(/C=C/c2ccc(OCC(F)(F)C(F)F)cc2)n1)c1ccc(F)cc1F (racemic) [compound A, (±)-2-(2,4-difluorophenyl)-1-[3-[(E)-4-(2,2,3,3-tetrafluoropropoxy)styryl]-1H-1,2,4-triazol-1-yl]-3-(1H-1,2,4-triazol-1-yl)propan-2-ol] | 1.56 (≈ 2.9 µM) | 12.5 (≈ 23.2 µM) | 12.5 (≈ 23.2 µM) | 0.39 (≈ 0.724 µM) | 0.78 (≈ 1.45 µM) | 12.5 (≈ 23.2 µM) | 1 | 1.7 | 53.6 | 43.5 | accumulates; also recorded: increased day-by day | – | dosage at which a decrease in serum cortisol was observed [7, 18]: ≥ 3 mg/kg/day; dosage at which atrophy of the seminiferous tubules of the testes was observed [7, 18]: ≥ 3 mg/kg/day; dosage at which hyperplasia and increase in lipid droplets in the zona fasciculata in the adrenal cortex was observed ([7]; every day for 28 days, 1, 3, 10 and 30 mg/kg/day, only slight for compound (+)-I): ≥ 3 mg/kg/day |
| OC(Cn1cncn1)(Cn1cnc(/C=C/c2ccc(OCC(F)(F)C(F)F)cc2)n1)c1ccc(F)cc1F (single isomer, unassigned; (+)) [Compound (+)-I, (+)-2-(2,4-difluorophenyl)-1-[3-[(E)-4-(2,2,3,3-tetrafluoropropoxy)styryl]-1H-1,2,4-triazol-1-yl]-3-(1H-1,2,4-triazol-1-yl)propan-2-ol] | – | 12.5 (≈ 23.2 µM) | – | – | – | – | 30 | 1 | 39.8 | 19.7 | no day-by day increase in the plasma concentrations; also recorded: does not display accumulation | 2.6 | MIC ([1]; 48 hours, listed as COMP. (+)I): 0.78 µg/mL (≈ 1.45 µM); MIC ([3]; 48 hours, listed as COMP. (+)I): 6.25 µg/mL (≈ 11.6 µM); MIC ([4]; 48 hours, listed as COMP. (+)I): 0.10 µg/mL (≈ 0.186 µM); MIC ([5]; 48 hours, listed as COMP. (+)I): 0.39 µg/mL (≈ 0.724 µM); MIC ([6]; 48 hours, listed as COMP. (+)I): 12.5 µg/mL (≈ 23.2 µM); testicular toxicity (atrophy of the seminiferous tubules), finding in words ([7]; even at a dosage of 30 mg/kg/day): did not display; electrocardiogram / cardiotoxicity (prolongation of the QTc interval), finding in words [7, 20]: no abnormalities in the electrocardiogram were seen; also recorded: did not display cardiotoxicity (prolongation of the QTc interval); serum cortisol level (finding in words) [7, 20]: no decrease in the serum cortisol level; also recorded: did not display |
| OC(Cn1cncn1)(Cn1cnc(/C=C/c2ccc(OCC(F)(F)C(F)F)cc2)n1)c1ccc(F)cc1F (single isomer, unassigned; (-)) [Compound (-)-I, (-)-2-(2,4-difluorophenyl)-1-[3-[(E)-4-(2,2,3,3-tetrafluoropropoxy)styryl]-1H-1,2,4-triazol-1-yl]-3-(1H-1,2,4-triazol-1-yl)propan-2-ol] | – | – | – | – | – | – | – | – | – | – | – | – | MIC ([1]; 48 hours, listed as COMP. (-)I): >100 µg/mL; MIC ([2]; SDA agar plates): 12.5 µg/mL (≈ 23.2 µM); MIC ([3]; 48 hours, listed as COMP. (-)I): >100 µg/mL; MIC ([4]; 48 hours, listed as COMP. (-)I): 50 µg/mL (≈ 92.9 µM); MIC ([5]; 48 hours, listed as COMP. (-)I): >100 µg/mL; MIC ([6]; 48 hours, listed as COMP. (-)I): >100 µg/mL |
| OC(Cn1cncn1)(Cn1cncn1)c1ccc(F)cc1F [FLUCONAZOLE, 2-(2,4-difluorophenyl)-1,3-bis(1H-1,2,4-triazol-1-yl)-propan-2-ol] | 100 (≈ 327 µM) | > 100 | > 100 | 25 (≈ 81.6 µM) | 50 (≈ 163 µM) | > 100 | – | 3.6 | 57.9 | > 100 | – | > 30 | – |

— EP0472392A2, “Optically active triazole derivatives and compositions” (priority 1990, dated 1992)
